Measurements: patent US8058306B2, “Phenyl pyrrole aminoguanidine derivatives” (Action Pharma A/S, priority 2006, dated 2011)

System: IL10
Test: Inhibition of LPS-induced IL10 production in rats
Type: in vivo, rat
Conditions: for Serum IL10 measured 120 after initiation of LPS infusion: mean ± SE, N = 6; for reduction of serum level of IL10 compared to vehicle treatment: 5.0 mg/kg dose level; for dose level of maximal effect (IL10): doses tested 0.1, 1.0, 5.0 mg/kg i.v.
Protocol: Experimental animals. Female Wistar rats (˜250 g) were obtained from the Charles River, Sulzfeld, Germany, and housed in a temperature- (22-24° C.) and moisture-controlled (40-70%) room with a 12 h light-dark cycle (light on from 6:00 A.M. to 6:00 P.M.). The rats were maintained on a standard rodent diet with 140 mmol/kg of sodium, 275 mmol/kg potassium and 23% protein (Altromin International, Lage, Germany) and had free access to water.
Animal preparation. […] After instrumentation, the animals were housed individually for 7-10 days until the day of the experiment.
Experimental protocol. Prior to the experiments all rats were adapted to the restraining cage used for the experiments by training. On the day of the experiment, the animal were transferred to a restraining cage, and an intravenous infusion of vehicle solution containing 150 mM glucose was started. The infusion rate was 0.5 ml/h throughout the experiment. After a short adaptation period, infusion of lipopolysaccharide (LPS) was started. LPS (E. coli serotype 0127 B8, L 3129, Sigma, St. Louis, USA) was given at a dose of 4 mg/kg body weight delivered as an i.v. infusion over 1 hour.
Arterial blood samples of 0.3 ml were taken 120 minutes after start of the LPS infusion.
In addition to LPS infusion all rats were treated with a bolus injection of:
Vehicle (0.5 mL 20% PEG200) or test compound in one of the following doses:
0.1; 1.0; 5.0 mg/kg given intravenously 5 min prior to initiation of the LPS infusion.
Test compounds: Compound 1 of the invention (FIG. 1A, structure no. 1), compound 2 of the invention (FIG. 1D, structure no. 19) and compound 3 of the invention (FIG. 1I, structure no. 53).
Measurement of TNF-α and IL-10 in plasma: The blood samples were collected in a prechilled test tube with 0.5 mM EDTA, pH 7.4, and 20×10^6 IU/ml aprotinin. After centrifugation at 4° C., plasma samples were transferred to pre-chilled test tubes and stored at −20° C. for later measurements of TNF-α and IL-10. TNF-α and Il-10 in plasma were determined by an ELISA (Biotrak, Amersham, UK).
Statistical analyses. Results are presented as means±SE. A two-way ANOVA for repeated measures was used to test for differences between groups. In case of P<0.05, the differences between corresponding periods are evaluated by unpaired t-tests with Bonferroni's correction of the level of significance.

[1] = 0.1 mg/kg i.v. 5 min prior to LPS
[2] = 1.0 mg/kg i.v. 5 min prior to LPS
[3] = 120 min after initiation of LPS infusion
[4] = 5.0 mg/kg i.v. 5 min prior to LPS

| Structure (SMILES) | Serum IL10 measured 120 after initiation of LPS infusion [1] [pg/mL] | Serum IL10 measured 120 after initiation of LPS infusion [2] [pg/mL] | reduction of serum level of IL10 compared to vehicle treatment [3] [%] | Serum IL10 measured 120 after initiation of LPS infusion [4] [pg/mL] | dose level of maximal effect (IL10) [mg/kg] | reduction of IL10 response compared to vehicle treatment (1.0 mg/kg dose level, 120 min after initiation of LPS infusion) [%] |
| --- | --- | --- | --- | --- | --- | --- |
| N=C(N)NN=CC=Cc1cccn1-c1ccc(Cl)cc1 [Compound 1, [1-(4-chlorophenyl)-1H-pyrrol-2-yl-allylideneamino]guanidinium acetate] | 8485 ± 960 | 5978 ± 890 | ~25 | 5651 ± 325 | 5.0 | – |
| N=C(N)NN=CC=Cc1cccn1-c1ccccc1Br [Compound 3, [1-(2-bromophenyl)-1H-pyrrol-2-yl-allylideneamino]guanidinium acetate] | 5658 ± 1119 | 3452 ± 1091 | – | 3856 ± 973 | 1.0 | ~55 |
| N=C(N)NN=CC=Cc1cccn1-c1ccccc1[N+](=O)[O-] [Compound 2, [1-(2-nitrophenyl)-1H-pyrrol-2-yl-allylideneamino]guanidinium acetate] | 7606 ± 1313 | 4770 ± 1387 | ~46 | 4053 ± 894 | 5.0 | – |
